# Assay results published in publication PMC11574108, “4-Furanylvinylquinoline derivative as a new scaffold for the design of oxidative stress initiator and glucose transporter inhibitor drugs” (Scientific Reports, 2024).
# Test system: GLUT-1
# Experiment: qRT-PCR, GLUT-1 mRNA expression
# Format: cell-based, human
# Conditions: HCT 116 p53-/-, 24 and 48 h
# Protocol: The cells were seeded in 35 mm Petri dishes at a density of 500,000 cells and incubated at 37 °C for 24 h. The total RNA was isolated after incubation with solutions of 13 (0.5 µM and 1.0 µM) for 24 h and 48 h, respectively. The isolation from the samples was carried out according to a TRIzol™ Reagent protocol (Thermo Fisher Scientific). Synthesis of cDNA was performed with 2 µg of total RNA using a GoScript™ Reverse Transcriptase kit (Promega) with Oligo(dT)23 Primers. Real-Time PCR was carried out using a CFX96 Touch™ Real-Time PCR Detection System (Bio-Rad) in 10 µL reaction volume. Each sample contained SsoAdvanced™ Universal SYBR Green Supermix (Bio Rad), a specific primer pair mix (0.5 µM each), and 1 µL of cDNA. […] The obtained data were analysed based on a comparison of the expression of the target genes and normalized to a reference gene (GAPDH) using the Livak-Schmittgen (2^−ΔΔCT) method. […]
# To verify the effect of derivative 13 on glucose transporters at the mRNA level, the expression of the genes encoding the best-characterised glucose transporters in cells was quantified in real-time. In addition to GLUT-1, the effect of the tested derivative on changes in the expression of GLUT-3 and GLUT-4 was also evaluated (Fig. 8). […]
structure (smiles),measurement,value
O=[N+]([O-])c1ccc(/C=C/c2ccnc3ccccc23)o1 [Compound 13],GLUT-1 mRNA level vs control,significant decrease
